# Source: patent US12485115B2, “Biased NMDA receptor modulators and uses thereof” (EDWARD VIA COLLEGE OF OSTEOPATHIC MEDICINE, priority 2018, dated 2025)
# Like-named read-outs stand apart in the source and are kept apart here.
# Legend:
# Assay type in all cases: cell-based
# GluN1/2A = GluN1/2A (Homo sapiens, UniProt Q05586+Q12879); test: NMDA receptor subunit selectivity of CNS004 analogs, average response, 1/2A; settings: compound 100 μM
# GluN1/2B = GluN1/2B (Homo sapiens, UniProt Q05586+Q13224); test: NMDA receptor subunit selectivity of CNS004 analogs, average response, 1/2B; settings: compound 100 μM
# GluN1/2A/2B (TH) = GluN1/2A/2B (TH) (Homo sapiens, UniProt Q05586+Q12879+Q13224); test: NMDA receptor subunit selectivity of CNS004 analogs, average response, TH; settings: compound 100 μM
# GluN1/2A NMDA receptor [1] = biological target: T1, GluN1/2A NMDA receptor (Homo sapiens, UniProt Q05586+Q12879); test: Two-electrode voltage clamp (TEVC), Xenopus oocytes expressing recombinant GluN1/2A
# Experimental: (§1) Two-electrode voltage clamp)TEVC) and patch clamp electrophysiology techniques were used to study CNS004 induced changes in NMDA receptor functions. Briefly, appropriate combinations of cRNA encoding different NMDA receptor subunits were injected into Xenopus oocytes and incubated at about 18° C. for about 2-4 days before TEVC assays. TEVC assays were performed with a −60 mV holding potential. […]
# GluN1/2B NMDA receptor = GluN1/2B NMDA receptor (Homo sapiens, UniProt Q05586+Q13224); test: Two-electrode voltage clamp (TEVC), Xenopus oocytes expressing recombinant GluN1/2B
# Experimental: as §1
# [2] = biological target: GluN1/2A/2B triheteromeric NMDA receptor (Homo sapiens, UniProt Q05586+Q12879+Q13224); test: Two-electrode voltage clamp (TEVC), Xenopus oocytes expressing recombinant GluN1/2A/2B
# Experimental: Briefly, appropriate combinations of cRNA encoding different NMDA receptor subunits were injected into Xenopus oocytes and incubated at about 18° C. for about 2-4 days before TEVC assays. TEVC assays were performed with a −60 mV holding potential.
# GluN1/2C NMDA receptor = GluN1/2C NMDA receptor (Homo sapiens, UniProt Q05586+Q14957); test: Two-electrode voltage clamp (TEVC), Xenopus oocytes expressing recombinant GluN1/2C; settings: 10 μM glycine and 10 μM glutamate; EC50 ND, n=6
# Experimental: as §1
# GluN1/2D NMDA receptor = GluN1/2D NMDA receptor (Homo sapiens, UniProt O15399+Q05586); test: Two-electrode voltage clamp (TEVC), Xenopus oocytes expressing recombinant GluN1/2D; settings: 10 μM glycine and 10 μM glutamate; EC50 ND, n=5
# Experimental: as §1
# GluN1/2A NMDA receptor [3] = biological target: T1, GluN1/2A NMDA receptor; test: Patch clamp electrophysiology, HEK293T cells expressing recombinant GluN1/2A; settings: 100 μM CNS004
# Experimental: (§2) Patch clamp electrophysiology was also performed. Briefly, HEK293T cells were transfected with cDNA encoding NMDA receptor subunits 18-24 hours prior to patch clamp procedures. The effect of CNS004 on the agonist induced NMDA receptor function was evaluated at −80 mV.
# [4] = biological target: T2, GluN1/2A/2B NMDA receptor (Homo sapiens, UniProt Q05586+Q12879+Q13224); test: Patch clamp electrophysiology, HEK293T cells expressing recombinant GluN1/2A/2B
# T2 construct: expressed in transfected cells; host or cells: HEK293T
# Experimental: as §2
# T2 sequence (Q12879 23-1464, other chains not shown): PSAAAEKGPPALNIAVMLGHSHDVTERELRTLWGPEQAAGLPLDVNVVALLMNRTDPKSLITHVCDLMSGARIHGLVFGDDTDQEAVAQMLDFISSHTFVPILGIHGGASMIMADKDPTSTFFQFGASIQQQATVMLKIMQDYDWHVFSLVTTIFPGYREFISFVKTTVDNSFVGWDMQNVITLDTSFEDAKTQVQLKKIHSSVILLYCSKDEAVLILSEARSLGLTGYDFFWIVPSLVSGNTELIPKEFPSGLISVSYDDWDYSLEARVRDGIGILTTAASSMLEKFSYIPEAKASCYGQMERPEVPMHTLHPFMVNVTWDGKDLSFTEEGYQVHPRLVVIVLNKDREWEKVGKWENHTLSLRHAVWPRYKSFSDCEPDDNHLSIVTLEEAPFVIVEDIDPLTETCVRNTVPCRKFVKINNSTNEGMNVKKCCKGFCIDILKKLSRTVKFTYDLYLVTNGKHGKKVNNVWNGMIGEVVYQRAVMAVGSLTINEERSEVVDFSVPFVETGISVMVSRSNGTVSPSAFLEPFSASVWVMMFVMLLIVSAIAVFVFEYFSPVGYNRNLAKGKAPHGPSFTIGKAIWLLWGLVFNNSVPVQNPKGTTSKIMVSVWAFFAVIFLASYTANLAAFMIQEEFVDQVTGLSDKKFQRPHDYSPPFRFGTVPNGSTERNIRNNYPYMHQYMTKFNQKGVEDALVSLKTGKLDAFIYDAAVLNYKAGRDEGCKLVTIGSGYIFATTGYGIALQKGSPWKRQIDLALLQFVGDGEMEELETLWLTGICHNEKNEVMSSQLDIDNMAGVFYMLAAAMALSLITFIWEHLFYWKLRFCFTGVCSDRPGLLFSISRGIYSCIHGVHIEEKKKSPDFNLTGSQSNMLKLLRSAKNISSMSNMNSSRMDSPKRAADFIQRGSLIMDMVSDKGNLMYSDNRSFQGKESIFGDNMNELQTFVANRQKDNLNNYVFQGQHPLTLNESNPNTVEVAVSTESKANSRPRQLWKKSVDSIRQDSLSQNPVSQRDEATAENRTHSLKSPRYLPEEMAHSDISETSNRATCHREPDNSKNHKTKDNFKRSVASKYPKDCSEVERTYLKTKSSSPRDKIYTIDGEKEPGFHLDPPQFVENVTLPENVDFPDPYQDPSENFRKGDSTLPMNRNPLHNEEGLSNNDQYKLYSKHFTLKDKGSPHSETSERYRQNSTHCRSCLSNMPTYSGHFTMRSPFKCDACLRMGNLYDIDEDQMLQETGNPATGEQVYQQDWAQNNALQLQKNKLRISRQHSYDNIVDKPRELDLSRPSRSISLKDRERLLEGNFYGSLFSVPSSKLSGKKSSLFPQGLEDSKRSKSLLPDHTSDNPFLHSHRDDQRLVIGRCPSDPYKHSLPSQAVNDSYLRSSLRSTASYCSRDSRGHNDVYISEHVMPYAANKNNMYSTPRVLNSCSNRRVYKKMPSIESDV
# T2 sequence (Q13224 27-1484, other chains not shown): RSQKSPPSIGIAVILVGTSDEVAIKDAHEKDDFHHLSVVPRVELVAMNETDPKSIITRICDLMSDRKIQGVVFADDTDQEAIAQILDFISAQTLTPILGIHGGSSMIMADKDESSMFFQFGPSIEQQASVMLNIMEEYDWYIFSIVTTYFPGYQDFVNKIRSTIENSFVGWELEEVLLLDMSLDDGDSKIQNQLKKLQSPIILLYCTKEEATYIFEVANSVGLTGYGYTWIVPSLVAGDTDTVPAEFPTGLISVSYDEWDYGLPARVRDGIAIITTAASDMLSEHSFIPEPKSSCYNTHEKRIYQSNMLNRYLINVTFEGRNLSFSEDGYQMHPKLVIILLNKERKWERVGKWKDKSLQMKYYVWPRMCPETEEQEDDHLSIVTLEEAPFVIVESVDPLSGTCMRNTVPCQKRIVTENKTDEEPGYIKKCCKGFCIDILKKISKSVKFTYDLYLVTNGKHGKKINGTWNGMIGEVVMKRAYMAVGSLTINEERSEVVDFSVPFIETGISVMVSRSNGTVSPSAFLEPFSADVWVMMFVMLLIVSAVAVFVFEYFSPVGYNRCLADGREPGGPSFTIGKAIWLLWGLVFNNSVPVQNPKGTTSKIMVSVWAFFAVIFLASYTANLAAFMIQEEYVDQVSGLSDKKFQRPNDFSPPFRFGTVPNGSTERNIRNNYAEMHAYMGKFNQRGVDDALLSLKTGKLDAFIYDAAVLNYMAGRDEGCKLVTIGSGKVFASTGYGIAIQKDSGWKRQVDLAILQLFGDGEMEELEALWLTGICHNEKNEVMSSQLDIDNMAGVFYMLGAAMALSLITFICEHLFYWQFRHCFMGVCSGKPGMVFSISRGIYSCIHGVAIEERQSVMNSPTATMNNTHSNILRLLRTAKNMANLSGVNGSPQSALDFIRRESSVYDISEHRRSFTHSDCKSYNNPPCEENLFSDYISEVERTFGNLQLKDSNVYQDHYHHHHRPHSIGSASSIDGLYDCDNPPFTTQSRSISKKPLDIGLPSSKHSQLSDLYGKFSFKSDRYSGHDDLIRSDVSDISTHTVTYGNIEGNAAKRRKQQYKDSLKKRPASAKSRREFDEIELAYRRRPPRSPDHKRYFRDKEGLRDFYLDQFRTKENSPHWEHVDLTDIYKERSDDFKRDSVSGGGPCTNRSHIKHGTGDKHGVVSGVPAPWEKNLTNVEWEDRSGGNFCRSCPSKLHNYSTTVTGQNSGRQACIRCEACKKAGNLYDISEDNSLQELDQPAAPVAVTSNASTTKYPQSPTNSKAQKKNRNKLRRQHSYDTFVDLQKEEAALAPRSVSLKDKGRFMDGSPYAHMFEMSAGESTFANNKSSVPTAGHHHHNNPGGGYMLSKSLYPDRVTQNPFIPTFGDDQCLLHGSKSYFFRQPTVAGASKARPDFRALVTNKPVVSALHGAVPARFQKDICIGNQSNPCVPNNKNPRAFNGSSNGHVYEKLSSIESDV
# GluN1/2A, sequence (Q12879 23-1464, other chains not shown): as the sequence (Q12879 23-1464, other chains not shown) above
smiles,measurement,setting,value
COCCCc1ccc(C(=O)NC(=S)N2CCCCC2c2cccnc2)cc1 (stereo not drawn) [Compound 8],"Average Response (% inhibition), 1/2A",GluN1/2A,0.4959 % inhibition
same,"Average Response (% inhibition), 1/2B",GluN1/2B,6.998 % inhibition
same,"Average Response (% inhibition), TH",GluN1/2A/2B (TH),8.377 % inhibition
O=C(NC(=S)N1CCCCC1c1cccnc1)c1ccc(Cl)c(F)c1 (stereo not drawn) [Compound 9],"Average Response (% inhibition), 1/2A",GluN1/2A,−31.9381 % inhibition
same,"Average Response (% inhibition), 1/2B",GluN1/2B,−19.0618 % inhibition
same,"Average Response (% inhibition), TH",GluN1/2A/2B (TH),−11.9509 % inhibition
O=C(NC(=S)N1CCCCC1c1cccnc1)c1ccc(CCCF)cc1 (stereo not drawn) [Compound 6],"Average Response (% inhibition), 1/2A",GluN1/2A,−21.076 % inhibition
same,"Average Response (% inhibition), 1/2B",GluN1/2B,6.739 % inhibition
same,"Average Response (% inhibition), TH",GluN1/2A/2B (TH),7.444 % inhibition
O=C(NC(=S)N1CCCCC1c1cccnc1)c1ccc(P(=O)(O)O)cc1 (stereo not drawn) [Compound 7],"Average Response (% inhibition), 1/2A",GluN1/2A,−1.858 % inhibition
same,"Average Response (% inhibition), 1/2B",GluN1/2B,3.872 % inhibition
same,"Average Response (% inhibition), TH",GluN1/2A/2B (TH),16.4617 % inhibition
COc1cccc(C(=O)NC(=S)N2CCCCC2c2cccnc2)c1OC (stereo not drawn) [Compound 41],"Average Response (% inhibition), 1/2A",GluN1/2A,15.8054 % inhibition
same,"Average Response (% inhibition), 1/2B",GluN1/2B,0.6785 % inhibition
same,"Average Response (% inhibition), TH",GluN1/2A/2B (TH),27.54 % inhibition
Fc1ccc(C(=S)NC(=S)N2CCCCC2c2cccnc2)cc1 (stereo not drawn) [Compound 3],"Average Response (% inhibition), 1/2A",GluN1/2A,−52.246 % inhibition
same,"Average Response (% inhibition), 1/2B",GluN1/2B,−45.1553 % inhibition
same,"Average Response (% inhibition), TH",GluN1/2A/2B (TH),−13.1155 % inhibition
"O=C(NC(=S)N1CCCCC1c1cccnc1)c1ccc(F)cc1 (stereo not drawn) [CNS004, 4-Fluoro-N-(2-(pyridin-3-yl)piperidine-1-carbonothioyl)benzamide]",effect on GluN1/2A (DRC),"GluN1/2A NMDA receptor [1]; 10 μM glycine and 10 μM glutamate, EC50 ND, n=6",minimally inhibited
same,change of glycine potency on GluN1/2A,"GluN1/2A NMDA receptor [1]; 30 uM CNS4, glutamate 100 uM",increase in glycine potency
same,change of glutamate potency on GluN1/2A,"GluN1/2A NMDA receptor [1]; 30 uM CNS4, glycine 100 uM",increase in glutamate potency
same,activity on GluN1/2A (averaged dose response curve),"GluN1/2A NMDA receptor [1]; 100 μM glycine and 100 μM glutamate, EC50 not determined, n=3",minimal activity
same,change of glycine potency on GluN1/2B,"GluN1/2B NMDA receptor; 30 uM CNS4, glutamate 100 uM",increase in glycine potency
same,activity on GluN1/2B (averaged dose response curve),"GluN1/2B NMDA receptor; 100 μM glycine and 100 μM glutamate, EC50 not determined, n=4",minimal activity
same,EC50,GluN1/2B NMDA receptor; read-out: EC50 of potentiation of GluN1/2B (averaged and normalized DRC),8.67 ± 2.77 µM
same,EC50,"[2]; 10 μM glycine and 10 μM glutamate, n=6, read-out: EC50 of potentiation of GluN1/2A/2B (averaged and normalized DRC)",39 ± 22.4 µM
same,change of glycine potency on GluN1/2A/2B,"[2]; 30 uM CNS4, glutamate 100 uM",increase in glycine potency
same,change of glutamate potency on TH (GluN1/2A/2B),"[2]; 30 uM CNS4, glycine 100 uM",increase in glutamate potency
same,effect on glycine and/or glutamate potency in GluN1/2A/2B (FIGS. 15A-15H),[2]; 30 μM and 100 μM CNS004,increases Glycine and/or Glutamate Potency
same,effect on agonist induced current in GluN1/2A/2B in three sequences of application,"[2]; 100 μM CNS004, 100 μM glycine+100 μM glutamate, co-application, agonist pre-application, CNS004 pre-application",potentiation
same,EC50,"[2]; 100 μM glycine and 100 μM glutamate, n=5, read-out: EC50 of potentiation of GluN1/2A/2B (averaged dose response curve)",160 ± 15.4 µM
same,effect of pre-application of CNS004 alone on agonist induced current response,"[2]; recombinant GluN1/2A, GluN1/2B and GluN1/2A/2B traces (FIG. 1E)",did not change the agonist induced current response
same,receptor activation in the absence of agonist glutamate or glycine,"[2]; recombinant GluN1/2A, GluN1/2B and GluN1/2A/2B traces (FIG. 1E), no agonist",did not activate the receptor
same,effect on GluN1/2C (DRC),GluN1/2C NMDA receptor,no activity
same,effect on GluN1/2D (DRC),GluN1/2D NMDA receptor,minimally inhibited
same,"effect of co-application with agonist on steady-state currents, GluN1/2A",GluN1/2A NMDA receptor [3]; 30 μM glycine and 100 μM glutamate,potentiates steady-state currents
same,effect on 1/2A receptor currents at reduced glutamate,GluN1/2A NMDA receptor [3]; 100 μM glycine and 300 nM glutamate,largely potentiated
same,"effect of co-application with agonist on steady-state currents, GluN1/2A/2B","[4]; 100 μM CNS004, 30 μM glycine and 100 μM glutamate",potentiates steady-state currents
same,effect on 1/2A/2B currents at reduced glutamate,"[4]; 100 μM CNS004, 100 μM glycine and 300 nM glutamate",inhibits
same,"effect of CNS004 pre-application on steady-state currents, GluN1/2A/2B","[4]; 100 μM CNS004 pre-application, 30 μM glycine and 100 μM glutamate",steep reduction in steady-state currents
same,"effect of CNS004 pre-application on desensitization, GluN1/2A/2B","[4]; 100 μM CNS004 pre-application, 30 μM glycine and 100 μM glutamate, GluN1/2A/2B only",promotes desensitization
O=C(NC(=S)N1CCCCC1c1cccnc1)c1cccc(F)n1 (stereo not drawn) [Compound 40],"Average Response (% inhibition), 1/2A",GluN1/2A,−3.81 % inhibition
same,"Average Response (% inhibition), 1/2B",GluN1/2B,−56.1908 % inhibition
same,"Average Response (% inhibition), TH",GluN1/2A/2B (TH),−3.494 % inhibition
O=C(NC(=O)N1CCCCC1c1cccnc1)c1ccc(F)cc1 (stereo not drawn) [Compound 4],"Average Response (% inhibition), 1/2A",GluN1/2A,20.43 % inhibition
same,"Average Response (% inhibition), 1/2B",GluN1/2B,5.755 % inhibition
same,"Average Response (% inhibition), TH",GluN1/2A/2B (TH),4.722 % inhibition
"CC(C(O)c1ccc(O)cc1)N1CCC(Cc2ccccc2)CC1 (stereo not drawn) [ifenprodil, reference compound]",selectivity for GluN1/2A/2B receptor (FIG. 9G),[2]; GluN1/2B selective antagonist,intermediate selectivity
O=C(NC(=S)N1CCCCC1c1cccnc1)c1ccc(C(F)(F)F)cc1 (stereo not drawn) [Compound 2],"Average Response (% inhibition), 1/2A",GluN1/2A,−76.1696 % inhibition
same,"Average Response (% inhibition), 1/2B",GluN1/2B,−14.5863 % inhibition
same,"Average Response (% inhibition), TH",GluN1/2A/2B (TH),−3.954 % inhibition
O=C(NC(=S)N1CCCCC1c1cccnc1)c1ccc(C2CC2)cc1 (stereo not drawn) [Compound 5],"Average Response (% inhibition), 1/2A",GluN1/2A,7.117 % inhibition
same,"Average Response (% inhibition), 1/2B",GluN1/2B,9.468 % inhibition
same,"Average Response (% inhibition), TH",GluN1/2A/2B (TH),−2.571 % inhibition
